Our source for the MIC, EC50 and Activity values is ChEMBL document CHEMBL1122236, “3'-Amino-2',3'-dideoxyribonucleosides of some pyrimidines: synthesis and biological activities” (1983).

The structures appear in SMILES notation. In brackets after ≈: the same amount, converted by molar mass. Activity calls are given as the source filed them. The rule behind the calls is not given here. Some results are limits rather than exact numbers.

In test [1] the test system is Pasteurella multocida. Put plainly: Minimum inhibitory concentration against Pasteurella multocida. Format: functional.
Test [2] has as its system D-38. The experiment in a line: In vitro cytotoxicity against human D-38 cells. Format: functional. The settings on record: read-out: ED50 (the source's name).
The subject of test [3] is Pseudomonas aeruginosa. Put plainly: Minimum inhibitory concentration against Pseudomonas aeruginosa. Format: functional.
Test [4] has as its system Klebsiella pneumoniae. The experiment in a line: Minimum inhibitory concentration against Klebsiella pneumoniae. The class given is functional.
Test [5] relates to Salmonella. Put plainly: Minimum inhibitory concentration against Salmonella typhi. Format: functional, salmonella typhosa.
Test [6] concerns Proteus vulgaris. Put plainly: Minimum inhibitory concentration against Proteus vulgaris. The class given is functional.
Test [7] relates to Klebsiella aerogenes. The experiment in a line: Minimum inhibitory concentration against Enterobacter aerogenes. Format: functional.
Test [8] deals with Serratia marcescens. Put plainly: Minimum inhibitory concentration against Serratia marcescens. Format: functional.
Test [9] deals with Staphylococcus aureus. Put plainly: In vitro minimum inhibitory concentration against Staphylococcus aureus. Format: functional.
Test [10] has as its system Vibrio cholerae. The experiment in a line: Minimum inhibitory concentration against Vibrio cholerae. The class given is functional.
In test [11] the test system is L cells. Put plainly: in vitro cytotoxicity against mouse L cells. Format: functional. The settings on record: L929, read-out: ED50 (the source's name).
In test [12] the test system is Proteus mirabilis. Put plainly: Minimum inhibitory concentration against Proteus mirabilis. The class given is functional.
For test [13], the system named is Salmonella typhimurium. The experiment in a line: Minimum inhibitory concentration against Salmonella Typhimurium. The class given is functional, Salmonella enterica subsp. enterica serovar Typhimurium. The settings on record: Salmonella enterica.
Test [14] has as its system unidentified adenovirus. Put plainly: In vitro antiviral activity against adeno virus using plaque reduction assay. The class given is functional. The settings on record: read-out: ED50 (the source's name). (In general: Plaque reduction counts the foci of infection that form in a cell layer.)
In test [15] the test system is Shigella flexneri. Put plainly: Minimum inhibitory concentration against Shigella flexneri. The class given is functional.
Test [16] has as its system Escherichia coli. Put plainly: Minimum inhibitory concentration against Escherichia coli. Format: functional.
The subject of test [17] is Citrobacter freundii. Put plainly: Minimum inhibitory concentration against Citrobacter freundii. The class given is functional.
The test system of test [18] is Streptococcus pyogenes. The experiment in a line: Minimum inhibitory concentration against Streptococcus pyogenes. Format: functional.
Test [19] has as its system Candida albicans. Put plainly: Minimum inhibitory concentration against Candida albicans. The class given is functional.
For test [20], the system named is Streptococcus agalactiae. The experiment in a line: Minimum inhibitory concentration against Streptococcus agalactiae. The class given is functional.
The subject of test [21] is Enterococcus faecalis. Put plainly: Minimum inhibitory concentration against Streptococcus faecalis. The class given is functional.
Test [22] has as its system Priestia megaterium. Put plainly: Minimum inhibitory concentration against Bacillus megaterium. The class given is functional.
The test system of test [23] is P388. Put plainly: Activity against P-388/0 mouse tumor at 675 mg/kg administered three times on days 1, 5, 9 after implantation; Inactive. Format: functional, organism-based. On the set-up: dose 675 mg/kg.
The test system of test [24] is Escherichia coli (organism). Put plainly: Minimum inhibitory concentration against Escherichia coli.

Take `NC1CC(n2cc(Cl)c(=O)[nH]c2=O)OC1CO` (stereo not given): the MIC in test [1], in [3], in test [4], in [5], in [6] and in test [7] was over 200 µM throughout. Also, the MIC in test [8], in [9], in [10], in [12], in [13] and in test [15] was over 200 µM throughout. In addition, the minimal inhibitory concentration (MIC) in test [16] and in test [17] was over 200 µM throughout. For the same compound, the figures for the EC50 in [2], in test [11] and in [14] were over 100 µM, 100 µM and 100 µM, respectively.
For `NC1CC(n2cc(I)c(=O)[nH]c2=O)OC1CO` (stereo not given), the MIC in test [1], in [3], in test [4], in test [5], in test [6] and in test [7] was over 200 µM each time. Also, the minimal inhibitory concentration (MIC) in test [8] is over 200 µM; in [9], over 400 µM; in test [10], over 200 µM; in [12] it was over 200 µM; in test [13] it was over 200 µM; in test [15] it was over 200 µM. For the same compound, the MIC in [16] and in test [17] was over 200 µM throughout. The EC50 in [2], in test [11] and in [14] was over 100 µM in each case.
For `NC1CC(n2cc(F)c(=O)[nH]c2=O)OC1CO` (stereo not given), the MIC is over 200 µM in [1]; over 200 µM in test [3]; over 200 µM in test [18]; over 200 µM in [19]; over 200 µM in test [4]; 20 µM (≈ 4.9 µg/mL) in [20]. Further, the MIC is 20 µM (≈ 4.9 µg/mL) in [21]; over 200 µM in [5]; 40 µM (≈ 9.81 µg/mL) in test [22]; over 200 µM in test [6]; over 200 µM in [7]; over 200 µM in [8]. Besides, the minimum inhibitory concentration (MIC) in [9] is 4 µM (≈ 0.981 µg/mL); in test [10] it was over 200 µM; in [12], over 200 µM; in [13], over 200 µM; in test [24], over 200 µM; in test [15], over 200 µM. Moreover, the MIC in test [17] is over 200 µM. Moreover, the figures for the EC50 in [2], in test [11] and in test [14] were over 100 µM, 100 µM and 10 µM, respectively. The result in test [23] was inactive.
For the compound `Cc1cn([C@H]2C[C@H](N)[C@@H](CO)O2)c(=O)[nH]c1=O` [3-AMINO- 3-DEOXYTHYMIDINE], the MIC in test [1], in test [3], in test [4], in test [5], in test [6] and in test [7] was over 200 µM throughout. In addition, the MIC is over 200 µM in test [8]; over 400 µM in [9]; over 200 µM in [10]; over 200 µM in test [12]; over 200 µM in [13]; over 200 µM in [15]. In addition, the MIC in [16] and in [17] was over 200 µM in each case. In addition, the EC50 was 100 µM in test [2], 3 µM in [11] and over 100 µM in test [14].
Turning to `Nc1ccn([C@H]2C[C@H](N)[C@@H](CO)O2)c(=O)n1`, the MIC in [1], in test [3], in test [4], in test [5], in [6] and in test [7] was over 200 µM throughout. The MIC in test [8] is over 200 µM; in [9], over 400 µM; in test [10], over 200 µM; in [12], over 200 µM; in [13] it was over 200 µM; in test [15], over 200 µM. Moreover, the MIC in [16] and in test [17] was over 200 µM in each case. Moreover, the EC50 was 3 µM in [2], 1 µM in test [11] and over 100 µM in test [14].
Regarding `NC1CC(n2cc(Br)c(=O)[nH]c2=O)OC1CO` (stereo not given), the MIC in test [1], in test [3], in test [4], in test [5], in test [6] and in test [7] was over 200 µM in each case. Further, the MIC is over 200 µM in test [8]; over 400 µM in test [9]; over 200 µM in test [10]; over 200 µM in test [12]; over 200 µM in test [13]; over 200 µM in test [15]. Further, the MIC in [16] and in test [17] was over 200 µM in each case. Moreover, the EC50 in [2] was over 100 µM; in test [11], over 100 µM; in [14] it was 100 µM.
As to `N[C@H]1C[C@H](n2ccc(=O)[nH]c2=O)O[C@@H]1CO`, the MIC in [1], in test [3], in test [4], in [5], in [6] and in test [7] was over 200 µM in each case. Besides, the MIC was over 200 µM in [8]; over 400 µM in test [9]; over 200 µM in test [10]; over 200 µM in [12]; over 200 µM in test [13]; over 200 µM in test [15]. In addition, the MIC in test [16] and in [17] was over 200 µM throughout. Further, the EC50 in test [2], in test [11] and in [14] was over 100 µM throughout.

One may read the MIC as the lowest concentration that inhibits growth of the organism. Low readings indicate inhibition by little substance, high ones a need for much substance.
